The record followed here is ChEMBL document CHEMBL1782027, “Synthesis and evaluation of heterobivalent tacrine derivatives as potential multi-functional anti-Alzheimer agents” (Eur J Med Chem, 2011).

The target of one experiment is Acetylcholinesterase (Electrophorus electricus, UniProt O42275).
The target of another experiment is Cholinesterase (Equus caballus, UniProt P81908).
Experiment [1] addresses Acetylcholinesterase (Electrophorus electricus) (UniProt O42275). Nature of the experiment: Binding affinity at electric eel AChE catalytic active site assessed as inhibition of acetylthiocholine chloride substrate hydrolysis incubated for 15 mins before substrate addition measured by spectrophotometry based Lineweaver-Burk plot analysis.
Experiment [2] has the same target. Put plainly: Binding affinity at electric eel AChE peripheral anionic site assessed as inhibition of acetylthiocholine chloride substrate hydrolysis incubated for 15 mins before substrate addition measured by spectrophotometry based Lineweaver-Burk plot analysis.
Experiment [3] can be described thus: Inhibition of amyloid beta (1 to 42) self-aggregation at 20 uM after 48 hrs by thioflavin T fluorescent dye assay.

Calls of active or inactive are those of the source. No cut-off for these calls is given here.

Cholinesterase, sequence (P81908 whole entry): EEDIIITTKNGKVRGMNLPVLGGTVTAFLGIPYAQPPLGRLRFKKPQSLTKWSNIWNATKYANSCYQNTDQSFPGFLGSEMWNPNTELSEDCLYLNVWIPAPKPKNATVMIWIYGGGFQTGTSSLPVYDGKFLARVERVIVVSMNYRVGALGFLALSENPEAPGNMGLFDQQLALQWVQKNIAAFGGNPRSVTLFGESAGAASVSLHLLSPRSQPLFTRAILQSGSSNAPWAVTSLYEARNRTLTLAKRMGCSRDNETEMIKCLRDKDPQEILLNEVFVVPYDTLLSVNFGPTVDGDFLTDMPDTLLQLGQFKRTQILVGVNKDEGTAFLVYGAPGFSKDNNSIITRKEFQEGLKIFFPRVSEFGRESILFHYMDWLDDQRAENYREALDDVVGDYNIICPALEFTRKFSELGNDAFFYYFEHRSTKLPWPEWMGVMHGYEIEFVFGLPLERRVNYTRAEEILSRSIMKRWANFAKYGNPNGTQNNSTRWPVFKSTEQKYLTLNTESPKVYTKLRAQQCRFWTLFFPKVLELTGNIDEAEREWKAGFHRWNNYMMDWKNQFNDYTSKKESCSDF
Acetylcholinesterase, sequence (O42275 whole entry): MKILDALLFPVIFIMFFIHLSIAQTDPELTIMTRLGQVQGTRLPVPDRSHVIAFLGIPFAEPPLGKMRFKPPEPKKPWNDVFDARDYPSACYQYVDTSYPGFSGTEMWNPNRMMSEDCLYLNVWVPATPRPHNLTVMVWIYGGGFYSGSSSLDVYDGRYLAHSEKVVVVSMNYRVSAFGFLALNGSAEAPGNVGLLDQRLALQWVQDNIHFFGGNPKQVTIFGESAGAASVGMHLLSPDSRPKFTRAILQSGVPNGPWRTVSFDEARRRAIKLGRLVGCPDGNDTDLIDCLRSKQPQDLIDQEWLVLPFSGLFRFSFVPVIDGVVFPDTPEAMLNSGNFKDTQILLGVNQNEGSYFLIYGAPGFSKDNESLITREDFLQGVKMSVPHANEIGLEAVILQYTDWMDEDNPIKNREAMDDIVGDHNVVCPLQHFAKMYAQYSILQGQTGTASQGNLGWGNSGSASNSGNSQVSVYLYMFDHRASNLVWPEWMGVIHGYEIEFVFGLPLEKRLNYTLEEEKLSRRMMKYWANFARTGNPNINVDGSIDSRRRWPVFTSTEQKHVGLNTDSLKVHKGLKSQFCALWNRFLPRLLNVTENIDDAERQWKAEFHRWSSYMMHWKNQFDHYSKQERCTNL
Acetylcholinesterase (Electrophorus electricus), sequence (O42275 24-633 limits assumed): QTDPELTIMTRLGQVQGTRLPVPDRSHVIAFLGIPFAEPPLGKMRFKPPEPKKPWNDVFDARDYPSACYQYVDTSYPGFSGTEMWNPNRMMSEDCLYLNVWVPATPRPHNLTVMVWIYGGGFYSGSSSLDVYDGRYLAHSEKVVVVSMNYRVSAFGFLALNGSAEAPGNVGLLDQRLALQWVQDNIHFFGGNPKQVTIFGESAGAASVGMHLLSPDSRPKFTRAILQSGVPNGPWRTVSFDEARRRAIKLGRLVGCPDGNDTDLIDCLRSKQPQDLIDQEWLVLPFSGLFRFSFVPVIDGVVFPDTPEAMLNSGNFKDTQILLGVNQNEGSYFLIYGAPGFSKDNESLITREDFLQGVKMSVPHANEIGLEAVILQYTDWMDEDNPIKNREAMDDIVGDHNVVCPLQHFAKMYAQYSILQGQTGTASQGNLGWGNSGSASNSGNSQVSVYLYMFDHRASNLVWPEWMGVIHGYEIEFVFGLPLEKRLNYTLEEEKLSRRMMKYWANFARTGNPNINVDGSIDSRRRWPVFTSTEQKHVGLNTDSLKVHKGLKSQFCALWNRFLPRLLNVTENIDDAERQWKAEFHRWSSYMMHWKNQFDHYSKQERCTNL

For the compound `Oc1ccc(CNCCCCCCCCNc2c3c(nc4ccccc24)CCCC3)cc1`, the IC50 against Acetylcholinesterase came to 7.48 nM; against Cholinesterase, 5.31 nM.
For `COc1cc(CNCCCCCCCCNc2c3c(nc4ccccc24)CCCC3)ccc1O`, the inhibition entry in experiment [1] and in experiment [2] was “Active” throughout. Besides, the inhibition in experiment [3] came to 71%. The IC50 against Acetylcholinesterase was found to be 4.55 nM; against Cholinesterase, 3.41 nM.
`COc1cc(CNCCCCCCCCNc2c3c(nc4ccccc24)CCCC3)cc(OC)c1O`: the IC50 against Acetylcholinesterase turned out to be 4.61 nM; against Cholinesterase, 4.08 nM.
For `Oc1cccc(CNCCCCCCCCNc2c3c(nc4ccccc24)CCCC3)c1` the same measures were 15.1 nM and 4.91 nM.
Take `Oc1ccccc1CNCCCCCCCCNc1c2c(nc3ccccc13)CCCC2`: the IC50 worked out at 12.5 nM against Acetylcholinesterase and 10.2 nM against Cholinesterase.
For `c1ccc2c(NCCCCCCCCNCc3ccc4c(c3)OCO4)c3c(nc2c1)CCCC3` the same measures were 6.14 nM and 3.44 nM.
In experiment [3], `COc1cc(/C=C/C(=O)CC(=O)/C=C/c2ccc(O)c(OC)c2)ccc1O` came in with an inhibition of 50%.
Consider `c1ccc2c(NCCCCCCCCNCc3ccncc3)c3c(nc2c1)CCCC3`, for which the IC50 on Acetylcholinesterase came to 4.7 nM; against Cholinesterase, 4.66 nM.
For `O=C(NCCCCCCCCNc1c2c(nc3ccccc13)CCCC2)c1ccncc1` the same measures were 38.5 nM and 38.7 nM.
For `COc1cc(CNCCCCCCNc2c3c(nc4ccccc24)CCCC3)ccc1O` the same measures were 43.6 nM and 9.28 nM.
For `COc1ccc(CNCCCCNc2c3c(nc4ccccc24)CCCC3)cc1OC`, the inhibition result in experiment [3] was “Active”. Further, the IC50 against Acetylcholinesterase is 365 nM; at Cholinesterase it was 37.2 nM.
Turning to `COc1ccc(CNCCCCCNc2c3c(nc4ccccc24)CCCC3)cc1OC`, the concentration for half-maximal inhibition (IC50) against Acetylcholinesterase was 104 nM; at Cholinesterase, 24.4 nM.
Turning to `COc1ccc(CNCCCCCCNc2c3c(nc4ccccc24)CCCC3)cc1OC`, the inhibition entry in experiment [3] was “Active”.
`Oc1ccc(CNCCCCCCNc2c3c(nc4ccccc24)CCCC3)cc1`: the IC50 against Acetylcholinesterase turned out to be 25.6 nM; against Cholinesterase, 7.5 nM.
For `COc1ccc(CNCCCCCCCCNc2c3c(nc4ccccc24)CCCC3)cc1` the same measures were 15.3 nM and 4.82 nM.

The IC50 is the point on the concentration scale where inhibition reaches its midpoint. As usually defined, the inhibition is the change of the read-out against control, counted positive when it falls.
